Measurements reported in PubChem BioAssay (NCI).
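Test compounds were applied to cells in 96-well plates for 48 hours at 5 doses. GI50 marks 50% less growth. The concentration for full growth arrest is given as TGI.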

Key:
Experiment in all cases: NCI-60 cell line screen, 48 h
[1] = system: DLD-1 colon
[2] = system: M19-MEL melanoma
[3] = system: KM20L2 colon
[4] = system: HOP-18 NSCLC
[5] = system: SNB-78 CNS
[6] = system: RXF-631 renal
[7] = system: DMS 273 small cell lung
[8] = system: MDA-MB-435
[9] = system: MDA-N

Row | SMILES | TGI [1] | TGI [2] | TGI [3] | TGI [4] | TGI [5] | TGI [6] | TGI [7] | GI50 [8] | TGI [8] | TGI [9]
1 | O=C1C=CC2(CCC23C=CC(=O)O3)O1 (configuration not stated) | > 100 µM | > 100 µM | > 100 µM | > 100 µM | > 100 µM | > 100 µM |  |  |  | 
2 | C=C1C(=O)O[C@@H]2C[C@@]3(C)[C@H](O)CCC(=C)[C@@H]3C[C@H]12 | 16.5 µM | 32.9 µM | 20.3 µM |  | 27.8 µM | 28.1 µM | 27.4 µM |  |  | 
3 | Cc1ccc(S(=O)(=O)Nc2ccccc2C(C)(C)C)cc1 | > 100 µM | 82.3 µM | 36.7 µM |  | > 100 µM |  | 38.5 µM |  |  | 
4 | O=C(Nc1ccccc1C(=O)NC(=O)c1ccccc1NC(=O)c1ccccc1)c1ccccc1 | 29.7 µM |  | 15.6 µM | 17.9 µM |  |  | 7.78 µM |  |  | 
5 | CCN1C(=O)N(CC)C2C1NC(=S)N2/N=C/C=C/c1ccccc1 (configuration not stated) |  |  |  |  |  |  |  | 25.3 nM | 0.0664 µM | 
6 | O=C1C2C(C(=O)N1Cc1ccccc1)N(Cc1ccccc1)C(=O)N2Cc1ccccc1 (configuration not stated) | > 100 µM | > 100 µM | > 100 µM |  | > 100 µM | > 100 µM |  |  |  | 
7 | O=C1OC(=O)c2c1nc1ccccc1c2-c1ccccc1 | > 100 µM | > 100 µM | > 100 µM | > 100 µM | > 100 µM | > 100 µM | > 100 µM |  |  | 
8 | C#Cc1cccc(NC(=O)/C=C\C(=O)O)c1 | > 100 µM |  | > 100 µM |  | > 100 µM |  |  |  |  | 
9 | CCCCCCCCCC1CC(=O)OC23CCCC(=O)C12O3 (configuration not stated) | > 100 µM | > 100 µM | > 100 µM | > 100 µM | > 100 µM |  | > 100 µM |  |  | 
10 | O=[N+]([O-])c1cccnc1S(=O)(=O)c1ccccc1 | 7.27 µM | 27.3 µM | 30.3 µM | 25.7 µM | 44 µM | 8.01 µM | 21.3 µM |  |  | 
11 | Oc1cn(-c2ccc(Cl)cc2)nc1-c1n[nH]c(=S)n1-c1ccc(F)cc1 |  |  |  |  |  |  |  | 4930 nM | > 100 µM | 
12 | CC(C)N(C(=O)C12C3C4C1C1C4(C#N)C3C12C(=O)O)C(C)C (configuration not stated) | > 100 µM | > 100 µM | > 100 µM | > 100 µM | > 100 µM | > 100 µM | > 100 µM |  |  | 
13 | N#Cc1c(-c2ccccc2)c(-c2ccccc2)cc2c(=O)c3ccc(Cl)cc3[nH]c12 | > 100 µM | > 100 µM | > 100 µM | > 100 µM |  |  | > 100 µM |  |  | 
14 | C/C(=C/CCC(C)[C@@H]1CC[C@]2(C)C3=C(CC[C@@]12C)[C@@]1(C)CCC(=O)C(C)(C)[C@@H]1CC3)C(=O)O (some centres not stated) |  |  |  |  |  |  |  | 1250 nM | 2.74 µM | 
15 | CC(=O)Nc1cccc(C#Cc2cncnc2Nc2ccc(OCc3cccc(F)c3)c(Cl)c2)c1 |  |  |  |  |  |  |  | 8140 nM | > 25 µM | 
16 | N#Cc1ccccc1Sc1ccccc1N | > 100 µM | > 100 µM |  | > 100 µM | > 100 µM |  | > 100 µM |  |  | 
17 | O=C(Nc1nc2ccc(S(=O)(=O)Nc3ccc(C4(C(F)(F)F)CC4)cc3)cc2[nH]1)c1cnccn1 |  |  |  |  |  |  |  | 330 nM | 1.4 µM | 

Row | SMILES | TGI [1] | TGI [2] | TGI [3] | TGI [4] | TGI [5] | TGI [6] | TGI [7] | GI50 [8] | TGI [8] | TGI [9]
18 | CC(C)(C)C1=NO[C@H]2[C@@H](NC(=O)c3ccccc3)CC[C@@H]12 | > 100 µM | > 100 µM | > 100 µM |  | > 100 µM |  |  |  |  | 
19 | CCOC1c2nc3ccccc3nc2-c2ccccc2N1C(C)=O (configuration not stated) | > 100 µM | > 100 µM | > 100 µM | > 100 µM | > 100 µM | > 100 µM | > 100 µM |  |  | 
20 | O=C(Nc1nc(=S)[nH][nH]1)C(=O)C(c1cnc2ccc([N+](=O)[O-])cc2n1)[N+](=O)[O-] (configuration not stated) | > 100 µM | > 100 µM | > 100 µM | > 100 µM | > 100 µM | > 100 µM |  |  |  | 
21 | Nc1c(C(=O)Nc2ccccc2)sc2nc3c(cc12)C(=O)CCC3 |  |  |  |  |  |  |  | 139 nM | > 100 µM | 
22 | OCC1OC(OC2(CO)OC(CO)C(O)C2O)C(O)C(O)C1O (configuration not stated) |  |  |  |  |  |  |  | > 100000 nM | > 100 µM | 
23 | Nc1nc(-c2ccccc2)c(CC(=O)O)s1 |  |  |  |  |  |  |  |  | > 100 µM | > 100 µM
24 | N#CN1CC[C@H](C(=O)Nc2ncc(-c3ccccc3)s2)C1 |  |  |  |  |  |  |  | 273 nM | 1.73 µM | 
25 | CN(C)CCNC(=O)Nc1ccc(N(C)c2ccnc(Nc3ccc(CS(C)(=O)=O)cc3)n2)cc1 |  |  |  |  |  |  |  | > 25000 nM | > 25 µM | 
26 | CCOC(=O)c1cn(C)c2c(OC)c3ccccc3c(OC)c2c1=O |  |  |  |  |  |  |  | 15900 nM | 30 µM | 
27 | O=C1C=CC2(O)OCC3C=C4O[C@@H]5OC6(CCCCC6)O[C@@H]5C4[C@@H]2[C@@H]13 (some centres not stated) | 50.6 µM | 54.9 µM | > 100 µM | > 100 µM | 83.3 µM |  | > 100 µM |  |  | 
28 | OCCNc1nc2ccccc2c2[nH]c3ccccc3c12 |  |  |  |  |  |  |  | 528 nM | 1.81 µM | 
29 | O=c1[nH]c(=S)[nH]c(O)c1/C=C1\C=Nc2ccccc21 |  |  |  |  |  |  |  | 2010 nM | 4.94 µM | 
30 | Cn1cc(-c2ccc3ncc(-c4ccc(CC(=O)Nc5cc(C(C)(C)C)nn5C)cc4)cc3c2)cn1 |  |  |  |  |  |  |  | 1250 nM | > 20 µM | 
31 | O=C(CI)NC(=O)NC(=O)NCc1ccccc1 |  |  |  |  |  |  |  | 3150 nM | 11.7 µM | 
32 | O=C(O)c1ccccc1C(=O)c1ccco1 | > 100 µM | > 100 µM | > 100 µM | > 100 µM | > 100 µM |  | > 100 µM |  |  | 
33 | Nc1nc(Cl)c2ncn(Cc3ccc(C45CC6CC(CC(C6)C4)C5)c(OCc4cc(F)c(F)cc4F)c3)c2n1 |  |  |  |  |  |  |  | 2980 nM | 17.6 µM | 
34 | COC(=O)C1CCC(C)CC1=O (configuration not stated) | > 100 µM | > 100 µM |  |  | > 100 µM | > 100 µM | > 100 µM |  |  | 
